Test results taken from publication PMC5955414, “PKD1 is a potential biomarker and therapeutic target in triple-negative breast cancer” (Oncotarget, 2018).

Experiments:
[1] = biological target: T1, PKD3 (Homo sapiens, UniProt O94806); parameters: method as in PMID 20497126, PMID 20442301, PMID 18829454, PMID 21617763, PMID 20444281; conditions: cited from earlier work
T1 sequence (O94806 1-890): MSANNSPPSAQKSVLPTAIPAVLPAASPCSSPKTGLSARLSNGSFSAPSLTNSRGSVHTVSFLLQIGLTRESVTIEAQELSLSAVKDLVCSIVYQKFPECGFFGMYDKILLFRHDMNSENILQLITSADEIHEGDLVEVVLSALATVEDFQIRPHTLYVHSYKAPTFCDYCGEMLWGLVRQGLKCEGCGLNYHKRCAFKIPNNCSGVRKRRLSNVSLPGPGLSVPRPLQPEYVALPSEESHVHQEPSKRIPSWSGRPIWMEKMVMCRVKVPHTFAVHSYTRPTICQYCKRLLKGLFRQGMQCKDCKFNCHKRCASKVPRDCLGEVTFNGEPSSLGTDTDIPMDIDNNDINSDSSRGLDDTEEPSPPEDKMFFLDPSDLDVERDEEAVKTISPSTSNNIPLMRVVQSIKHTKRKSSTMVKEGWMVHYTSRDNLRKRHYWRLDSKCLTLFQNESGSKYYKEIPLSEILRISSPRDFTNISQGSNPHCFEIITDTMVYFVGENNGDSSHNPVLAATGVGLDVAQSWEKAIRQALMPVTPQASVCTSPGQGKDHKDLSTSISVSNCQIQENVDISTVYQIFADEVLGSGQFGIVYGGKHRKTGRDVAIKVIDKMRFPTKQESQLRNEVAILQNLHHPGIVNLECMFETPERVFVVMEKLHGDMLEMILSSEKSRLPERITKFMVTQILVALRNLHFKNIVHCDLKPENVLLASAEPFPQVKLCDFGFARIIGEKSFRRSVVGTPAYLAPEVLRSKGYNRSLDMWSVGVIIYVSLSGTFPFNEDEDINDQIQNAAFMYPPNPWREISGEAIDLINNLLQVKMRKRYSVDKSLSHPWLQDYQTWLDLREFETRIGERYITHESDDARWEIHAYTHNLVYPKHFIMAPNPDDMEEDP

[2] = system: MCF7 chemoresistant xenografts; parameters: method as in PMID 26895471; conditions: cited from earlier work
[3] = biological target: T1, PKD3; assay: In vitro kinase inhibitory activity, PKD3; assay type: biochemical; conditions: AB9275: at concentrations inhibiting PKD1; compared with PKD1
Description: (§1) Supplementary Figure 5: Specificity of the AB9275 PKD1 inhibitor. (A) Comparison of in vitro kinase inhibitory activities
(§2) between AB9275 and different PKD1 inhibitors.
(§3) CRT0066101. Other IC50s were obtained from the literature (as indicated). (B) Kinome selectivity profile of the AB9275 compound. The
(§4) CA). AB9275 was screened at 1 μM.

[4] = biological target: T2, PKCβ (Homo sapiens, UniProt P05771); assay: In vitro kinase inhibitory activity, PKCβ; assay type: biochemical; conditions: AB9275: at concentrations inhibiting PKD1
T2 sequence (P05771 whole entry, species assumed): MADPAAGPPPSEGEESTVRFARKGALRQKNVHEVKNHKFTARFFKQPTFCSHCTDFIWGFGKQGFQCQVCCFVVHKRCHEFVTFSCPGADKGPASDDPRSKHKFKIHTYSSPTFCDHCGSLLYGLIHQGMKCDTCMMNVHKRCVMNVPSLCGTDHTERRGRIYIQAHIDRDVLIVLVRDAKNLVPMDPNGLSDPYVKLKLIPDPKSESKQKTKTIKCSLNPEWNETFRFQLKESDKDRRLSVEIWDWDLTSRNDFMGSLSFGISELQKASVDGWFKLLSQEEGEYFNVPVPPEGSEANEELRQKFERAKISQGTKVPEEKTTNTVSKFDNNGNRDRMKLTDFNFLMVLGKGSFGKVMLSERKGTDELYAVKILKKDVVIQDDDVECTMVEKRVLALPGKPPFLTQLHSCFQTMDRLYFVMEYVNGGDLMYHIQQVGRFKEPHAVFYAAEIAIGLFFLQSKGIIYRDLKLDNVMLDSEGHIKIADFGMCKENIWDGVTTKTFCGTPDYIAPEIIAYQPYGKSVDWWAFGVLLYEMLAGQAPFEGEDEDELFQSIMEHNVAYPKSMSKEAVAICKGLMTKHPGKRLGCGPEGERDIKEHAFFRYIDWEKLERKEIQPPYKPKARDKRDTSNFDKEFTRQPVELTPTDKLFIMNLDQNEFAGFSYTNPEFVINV
Description: as §1, §2, §3, §4

[5] = biological target: T3, PKCα (Homo sapiens, UniProt P17252); parameters: method as in PMID 20497126, PMID 20442301, PMID 18829454, PMID 21617763, PMID 20444281; conditions: cited from earlier work
[6] = biological target: T2, PKCβ; parameters: method as in PMID 20497126, PMID 20442301, PMID 18829454, PMID 21617763, PMID 20444281; conditions: cited from earlier work
[7] = biological target: T3, PKCα; assay: In vitro kinase inhibitory activity, PKCα; assay type: biochemical; conditions: AB9275: at concentrations inhibiting PKD1
Description: as §1, §2, §3, §4

O=C1NCCCc2c1oc1ccc(O)cc21 [CID755673]
Inhibition of PKD3 relative to PKD1 (literature) [1]: similarly inhibit PKD1 and PKD3

CC[C@@H](N)CNc1ccnc(-c2cc(-c3cnn(C)c3)ccc2O)n1.Cl.Cl [CRT0066101]
Tumor growth of MCF7 chemoresistant xenografts in vivo [2]: able to inhibit tumor growth
Inhibition of PKD3 in vitro [3]: more potent against PKD3
Inhibition of PKD3 relative to PKD1 (literature) [1]: similarly inhibit PKD1 and PKD3

Cn1c2ccccc2c2c3c(c4c5ccccc5n(CCC#N)c4c21)CNC3=O [Gö6976]
Inhibition of PKCβ in vitro [4]: strongly inhibited
Inhibition of PKCα (literature) [5]: also inhibits
Inhibition of PKCβ (literature) [6]: also inhibits
Inhibition of PKCα in vitro [7]: strongly inhibited

CRT5
Inhibition of PKD3 relative to PKD1 (literature) [1]: similarly inhibit PKD1 and PKD3
